A short description of one data set: pH. It is filed as physicochemical.
For data set [1] the following is noted: free base form of the drug named as HCl salt; cited from earlier work.

Where a name gives a salt, the structure may show the parent alone.

Take `C#CCN(C)[C@H](C)Cc1ccccc1` [Selegiline free base, selegiline]: the solubility in water result in “Solubility in water” is reported as “only sparingly soluble in water”.

Consider `CCN(CC)CC` [Triethylamine], for which, in the data set “pH”, the “calculated pH” value was “approximately 13.7” and the “measured pH” value was “approximately 11.7”.

`Clc1cccc(Cl)c1N=C1NCCN1` [clonidine-HCl]: the “pKb of the free base form” value in data set [1] was 7.

For the compound `C#CCN(C)[C@H](C)Cc1ccccc1` [selegiline-HCl], the solubility in water result in “Solubility in water” is recorded as “readily soluble in water”.

Turning to phenylpropranolol-HCl, the “pH of the free base form” value in “pH” (free base form) is given as “approximately 13”.

These data come from US7638140B2, “Adhesive mixture for transdermal delivery of highly plasticizing drugs” (priority 1997, dated 2009).
